Data from patent publication US20160355465A1, “NOVEL MODIFIED CURCUMINS AND THEIR USES” (THE RESEARCH FOUNDATION OF STATE UNIVERSITY OF NEW YORK, priority 2011, published 2016).

Tests used:
MMP-12 = MMP-12 (Homo sapiens, UniProt P39900); assay: fluorimetric assay of MMP activity; assay type: biochemical; conditions: synthetic fluorescent peptide substrate Mca-Lys-Pro-Leu-Gly-Leu-Dpa-Ala-Arg-NH2
[1] = test system: MMP-9 (92 kDa gelatinase); assay: gelatin zymography of skin wound extracts; assay type: in vivo, rat; conditions: diabetic rats, all three treatments (1%, 3% topical, oral 30 mg/kg), day 7
Description: (§1) The following five experimental groups (n=3 rats per group) were established: Non-diabetic control rats (NDC) treated by daily application of white petrolatum jelly (“vehicle”) for 7 days, diabetic rats (D group) treated daily with vehicle alone; diabetics treated by daily topical application of either a 1% (D+1%) or a 3% (D+3%) suspension of Compound 4 in the vehicle; and diabetics treated systemically by daily oral intubation of a 1 ml suspension of Compound 4 (in carboxymethylcellulose) at a dose of 30 mg/kg over the 7-day treatment protocol (D+30 mg/kg). At the end of this time period, the circular wounds were clinically assessed by measuring diameter of the wound in millimeters, blood samples were collected, the rats were sacrificed, and skin samples collected for histological/histochemical, and biochemical assessment as described below. • 1) On day 7 after inducing wound healing, the animals were anesthetized and blood samples collected for blood glucose (one Touch Ultra Glucometer; Johnson & Johnson, New Brunswick, N.J.) and Hemoglobin A1c (A1c Now+; Bayer Health Care, Sunnyvale, Calif.) measurements. • 2) Photographs were taken for clinical observations to assess wound closure. […]

[2] = test system: MMP-2 (72 kDa gelatinase); assay: gelatin zymography of skin wound extracts; assay type: in vivo, rat; conditions: diabetic rats, 1% topical, day 7
Description: as §1

MMP-1 = target: T1, MMP-1 (Homo sapiens, UniProt P03956); assay: fluorimetric assay of MMP activity; assay type: biochemical; conditions: synthetic fluorescent peptide substrate Mca-Lys-Pro-Leu-Gly-Leu-Dpa-Ala-Arg-NH2
T1 sequence (P03956 100-469): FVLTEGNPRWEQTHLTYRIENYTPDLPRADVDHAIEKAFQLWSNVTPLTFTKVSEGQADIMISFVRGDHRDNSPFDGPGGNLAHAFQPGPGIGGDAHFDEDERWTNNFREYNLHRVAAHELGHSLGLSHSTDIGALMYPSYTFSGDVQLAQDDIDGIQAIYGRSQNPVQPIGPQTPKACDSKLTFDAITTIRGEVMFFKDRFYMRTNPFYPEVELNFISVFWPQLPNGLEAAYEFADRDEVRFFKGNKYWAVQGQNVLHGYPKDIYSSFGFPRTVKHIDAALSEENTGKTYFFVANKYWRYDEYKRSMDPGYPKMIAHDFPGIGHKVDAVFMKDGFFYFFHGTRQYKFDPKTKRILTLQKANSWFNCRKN

MMP-14 = MMP-14 (Homo sapiens, UniProt P50281); assay: fluorimetric assay of MMP activity; assay type: biochemical; conditions: synthetic fluorescent peptide substrate Mca-Lys-Pro-Leu-Gly-Leu-Dpa-Ala-Arg-NH2
collagen in wound tissue = assay: collagen fractions (hydroxyproline) in wound tissue of diabetic rats; assay type: in vivo, rat; conditions: wound tissue day 6
Source text: Biochemical measurements were made on wound tissue 6 days after creating the standardized 6 mm diameter wounds in the various groups of rats including: (1) non-diabetic controls (NDC); (2) Diabetic (DM) rats treated topically with 0.25% curcumin; (3) DM treated with 1% curcumin; (4) DM treated with 0.25% Compound 4, and (5) DM rats treated with 1% Compound 4. The wound tissues from these five different groups were then hydrolyzed (after extraction; see below) to degrade the collagen to individual amino acids, and the amino acid unique to collagen, hydroxyproline, was measured by a commercial colorimetric assay. Prior to hydrolysis, the wound tissues were extracted (at 4° C. to maintain the triple-helical conformation of the collagen molecules) to obtain first the salt-soluble fraction, then the acid-soluble fraction, leaving the insoluble fraction.

contact dermatitis = assay: poison ivy contact dermatitis on the arms of a human subject, topical; assay type: in vivo; conditions: Example 9
Source text: The leaves of a poison ivy plant are applied to equally sized areas of the left and right arms of a human subject.

MMP-13 = MMP-13 (Homo sapiens, UniProt P45452); assay: fluorimetric assay of MMP activity; assay type: biochemical; conditions: synthetic fluorescent peptide substrate Mca-Lys-Pro-Leu-Gly-Leu-Dpa-Ala-Arg-NH2
skin wounds = assay: healing of 6 mm skin wounds in streptozotocin-diabetic rats, clinical wound diameter; assay type: in vivo, rat; conditions: 7 days
Description: Three weeks after inducing diabetes, the back skin of all the rats was shaved and a series of 6 standard wounds per rat, each 6 mm in diameter, was made using a surgical trephine.
A finely-ground sample (0.1 g) of Compound 4 [4-(phenylaminocarbonyl)-1,7-bis(4-hydroxyphenyl)hepta-1e,6e-diene-3,5-dione] was added to petrolatum jelly (9 g) and the mixture was homogenized for 15 minutes at 25° C., then allowed to settle for 5 minutes. This procedure was repeated nine times, producing a homogeneous product having a cream-like consistency. This was then used in topical application to wounds.
The following five experimental groups (n=3 rats per group) were established: Non-diabetic control rats (NDC) treated by daily application of white petrolatum jelly (“vehicle”) for 7 days, diabetic rats (D group) treated daily with vehicle alone; diabetics treated by daily topical application of either a 1% (D+1%) or a 3% (D+3%) suspension of Compound 4 in the vehicle; and diabetics treated systemically by daily oral intubation of a 1 ml suspension of Compound 4 (in carboxymethylcellulose) at a dose of 30 mg/kg over the 7-day treatment protocol (D+30 mg/kg). At the end of this time period, the circular wounds were clinically assessed by measuring diameter of the wound in millimeters, blood samples were collected, the rats were sacrificed, and skin samples collected for histological/histochemical, and biochemical assessment as described below. • 1) On day 7 after inducing wound healing, the animals were anesthetized and blood samples collected for blood glucose (one Touch Ultra Glucometer; Johnson & Johnson, New Brunswick, N.J.) and Hemoglobin A1c (A1c Now+; Bayer Health Care, Sunnyvale, Calif.) measurements. • 2) Photographs were taken for clinical observations to assess wound closure. The % reduction of the wound surface was calculated by measuring the diameter (in millimeters) of each wound before and after the treatment protocol. • 3) Wound tissues on day 7 were excised from 3 sites per rat and pooled for biochemical analysis. […]

MMP-12, sequence (P39900 106-470): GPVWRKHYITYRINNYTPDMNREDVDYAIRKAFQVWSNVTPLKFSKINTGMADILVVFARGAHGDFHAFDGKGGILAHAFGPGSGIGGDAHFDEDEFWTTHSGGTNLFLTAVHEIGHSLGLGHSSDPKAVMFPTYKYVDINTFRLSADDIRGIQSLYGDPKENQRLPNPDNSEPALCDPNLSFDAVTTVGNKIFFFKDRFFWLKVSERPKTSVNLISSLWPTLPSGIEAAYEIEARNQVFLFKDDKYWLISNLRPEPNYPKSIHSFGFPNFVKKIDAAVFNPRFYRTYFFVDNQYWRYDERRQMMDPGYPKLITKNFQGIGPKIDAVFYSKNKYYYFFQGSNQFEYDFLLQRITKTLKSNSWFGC

O=C(/C=C/c1ccc(O)cc1)C(C(=O)/C=C/c1ccc(O)cc1)C(=O)Nc1ccccc1 [Compound 4, 1,7-Bis(4-hydroxyphenyl)-4-N-phenylaminocarbonylhepta-1E, 6E-dien-3,5-dione]
IC50 (MMP-12): 2 ± 0.4 µM
level of pro-MMP-9 and activated MMP-9 in skin wounds [1]: attenuated this diabetic effect
MMP-2 in skin wounds [2]: does not suppress, and perhaps even enhances
IC50 (MMP-1): 69.8 ± 2 µM
IC50 (MMP-14): 15.3 ± 3.1 µM
Collagen Fractions (%) Acid-soluble (collagen in wound tissue; 0.25% topical): 41.7%
Collagen Fractions (%) Insoluble (collagen in wound tissue; 0.25% topical): 31.7%
Collagen Fractions (%) Salt-soluble (collagen in wound tissue; 0.25% topical): 26.6%
Collagen Fractions (%) Acid-soluble (collagen in wound tissue; 1% topical): 29.4%
Collagen Fractions (%) Insoluble (collagen in wound tissue; 1% topical): 40.5%
Collagen Fractions (%) Salt-soluble (collagen in wound tissue; 1% topical): 30.1%
itching and healing of contact dermatitis compared with Compound 2 (contact dermatitis): stops itching sooner and heals quicker
IC50 (MMP-13): 2.7 ± 0.7 µM
reduction in wound diameter (skin wounds; 1% topical in petrolatum jelly, daily, non-diabetic control 30%): 35%
wound healing (in words) (skin wounds; 3% topical, daily): significant increase in wound healing over that of the untreated diabetic control
wound healing (in words) (skin wounds; systemic, oral 30 mg/kg daily): returned wound healing characteristics to that seen in the non-diabetic control group
